Here are results for seven compounds from PMC6108835, “Target-Based Discovery of an Inhibitor of the Regulatory Phosphatase PPP1R15B” (Cell, 2018).

Series [1] addresses T1, R15B (Homo sapiens, UniProt Q5SWA1).
T1 construct: endogenous in cells; host or cells: HeLa
T1 sequence (Q5SWA1 1-713): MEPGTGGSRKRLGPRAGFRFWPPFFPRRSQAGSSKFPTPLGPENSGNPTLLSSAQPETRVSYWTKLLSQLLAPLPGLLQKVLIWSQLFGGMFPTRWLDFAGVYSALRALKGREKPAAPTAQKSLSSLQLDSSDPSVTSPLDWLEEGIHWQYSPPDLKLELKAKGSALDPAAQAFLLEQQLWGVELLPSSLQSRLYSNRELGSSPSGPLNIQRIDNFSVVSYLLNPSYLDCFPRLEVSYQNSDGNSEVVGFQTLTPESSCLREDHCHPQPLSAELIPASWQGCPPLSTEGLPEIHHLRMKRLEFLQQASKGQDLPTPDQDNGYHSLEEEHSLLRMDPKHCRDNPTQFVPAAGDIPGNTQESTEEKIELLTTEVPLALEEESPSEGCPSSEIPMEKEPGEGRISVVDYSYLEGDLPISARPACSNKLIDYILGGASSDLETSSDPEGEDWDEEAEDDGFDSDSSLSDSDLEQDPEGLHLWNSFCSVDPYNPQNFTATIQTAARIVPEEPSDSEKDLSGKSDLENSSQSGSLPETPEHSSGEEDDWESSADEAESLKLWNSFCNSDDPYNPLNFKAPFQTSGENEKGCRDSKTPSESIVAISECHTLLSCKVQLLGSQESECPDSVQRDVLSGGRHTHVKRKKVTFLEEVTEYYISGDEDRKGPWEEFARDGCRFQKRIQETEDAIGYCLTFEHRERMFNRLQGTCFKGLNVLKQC
Nature of the series: R15B levels on immunoblots of HeLa cell lysates. The series is classed as cell-based. As to conditions: HeLa cells, Raphin1 10 μM; MG-132 10 μM; NSM-873 or CB-5083 1 μM. As to the method:
HeLa or MEF cells (90,000 cells/mL) were plated in 12-well plates (1 mL/well). The following day cells were treated as indicated; the medium was removed, fresh medium containing compound added and incubated at 37°C for the times indicated. The time course was performed in reverse order to facilitate collecting all samples at the same time. At the end of treatment cells were washed two times with ice-cold PBS and lysed in 150 μL Laemmli Buffer. […] Proteins were transferred to the nitrocellulose membrane using the iBlot 2 system (ThermoFisher Scientific). Membrane was blocked in 5% skimmed milk for 30 min and then probed with primary antibodies followed by incubation with the appropriate horseradish peroxidase-conjugated secondary antibodies (Promega). Proteins were visualized using ECL Prime (GE Healthcare) and imaged in the Chemi-Smart 5000 (Vilber-Lourmat, France) or ChemiDoc Touch (BioRad). Bands were quantified using ImageJ (NIH, USA).

Series [2] deals with liver. Nature of the series: Oil Red O staining of liver (steatosis). It is filed as in vivo, mouse. The settings on record: wild-type mice, single dose 40 mg/kg; Raphin1 also 2 mg/kg for 10 weeks. As to the method: Treatment- and test-naive C57BL/6J males and females were used. Mice received a single dose of Raphin1 or cycloheximide (CHX, Sigma-Aldrich) at 40 mg/kg at 3 months of age or were treated chronically with Raphin1 at 2 mg/kg from 4 weeks of age for 10 weeks before the analysis. Mice were culled by cervical dislocation, liver was extracted, fresh-frozen in the O.C.T. compound (VWR International) and kept at −80°C until use. Oil Red O staining was performed on 10 μm thick frozen cryosections (Leica CM1850). Sections were washed in 60% propanol and stained for 20 min at room temperature with filtered 0.33% Oil Red O solution (VWR International). After rinsing with distilled water sections were counterstained with hematoxylin (VWR, diluted 1:15) for 1 min. Images were acquired with a 40X objective using SCN400F scanner (Leica).

The target in series [3] is T2, PP1c (Homo sapiens, UniProt P36873). Put plainly: SPR, compounds binding to PP1c alone immobilized on streptavidin chip. Also on record: cDNA encoding for human PP1cγ (aa 1-322) was cloned into two baculovirus transfer vectors; made in house; host or cells: Sf9 insect cells (baculovirus). The settings on record: PP1c immobilized on SA chip. As to the method:
(§1) Small molecules were stored as 50 mM stock solutions in 100% DMSO. […] If necessary the concentration range was adjusted to accurately determine the KD depending on the initial results. […] This was followed by 1 min stabilization period, to wash off any unspecific binding. […] After each dilution series, the surface was regenerated using 3 M NaCl for 90 s. […] In order to be able to correct for small variations in DMSO concentration between samples, eight solvent samples ranging from 0.06 to 8% DMSO were injected every 50th cycle. The flow cell temperature was 20°C.

In series [4] the target is T3, R15A-PP1c holophosphatase (R15A^325-636-PP1c) (Homo sapiens, UniProt O75807).
T3 construct: cDNAs encoding amino acids 325-636 of R15A and 340-698 of R15B were cloned into pMAL-c5x; made in house; host or cells: R15A: E. coli BL21-Gold (DE3) pLysS; bio-PP1c: Sf9 insect cells (baculovirus)
T3 sequence (O75807 325-636, stated change not applied): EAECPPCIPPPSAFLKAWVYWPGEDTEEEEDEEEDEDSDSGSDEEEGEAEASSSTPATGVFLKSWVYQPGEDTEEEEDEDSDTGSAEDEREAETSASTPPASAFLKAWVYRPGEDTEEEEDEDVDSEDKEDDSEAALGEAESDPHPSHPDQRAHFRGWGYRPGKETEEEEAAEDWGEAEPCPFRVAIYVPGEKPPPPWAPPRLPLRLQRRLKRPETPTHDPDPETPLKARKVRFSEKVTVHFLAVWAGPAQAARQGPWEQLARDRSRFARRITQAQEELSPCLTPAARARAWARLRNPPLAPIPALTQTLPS
T3 sequence (P36873 1-322 partner): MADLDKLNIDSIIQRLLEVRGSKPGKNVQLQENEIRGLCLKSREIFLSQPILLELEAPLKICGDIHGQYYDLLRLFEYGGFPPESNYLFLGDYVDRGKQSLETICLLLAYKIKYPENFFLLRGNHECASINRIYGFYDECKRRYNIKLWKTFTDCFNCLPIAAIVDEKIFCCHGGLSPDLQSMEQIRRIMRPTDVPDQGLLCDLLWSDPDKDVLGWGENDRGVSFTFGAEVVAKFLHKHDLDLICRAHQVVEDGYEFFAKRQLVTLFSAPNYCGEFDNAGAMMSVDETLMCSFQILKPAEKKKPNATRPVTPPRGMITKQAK
Put plainly: Holophosphatase SPR, compounds binding to reconstituted R15A-PP1c. As to conditions: for Binding to R15A-PP1c (in words): SPR, up to 25 μM. As to the method:
as §1

For series [5], the target named is T4, R15B-PP1c holophosphatase (R15B^340-698-PP1c) (Homo sapiens, UniProt Q5SWA1).
T4 construct: cDNAs encoding amino acids 325-636 of R15A and 340-698 of R15B were cloned into pMAL-c5x; made in house; host or cells: R15B: E. coli BL21-Gold (DE3) pLysS; bio-PP1c: Sf9 insect cells (baculovirus)
T4 sequence (P36873 1-322 partner limits assumed, one chain of several): as the sequence (P36873 1-322 partner) above
Nature of the series: Holophosphatase SPR, compounds binding to reconstituted R15B-PP1c. The settings on record: SPR, up to 25 μM. As to the method:
as §1

For series [6], the target named is T5, R15B (Homo sapiens, UniProt Q5SWA1).
T5 construct: cDNAs encoding amino acids 325-636 of R15A and 340-698 of R15B were cloned into pMAL-c5x; made in house; host or cells: E. coli BL21-Gold (DE3) pLysS
Nature of the series: Limited trypsin digestion of R15B. As to conditions: R15 3 μM, compound 100 μM, trypsin 5 nM, 5 min, 22°C. The method, then: (§2) Reactions were initiated by addition of 5 nM of trypsin from bovine pancreas (Sigma-Aldrich), made up in PBS, and allowed to proceed for 5 min at 22°C, with shaking at 350 rpm. […] Proteins were visualized by staining with InstantBlue Protein Stain (Expedeon).

For series [7], the target named is R15A (Homo sapiens, UniProt O75807). Nature of the series: Limited trypsin digestion of R15A. More on the design: cDNAs encoding amino acids 325-636 of R15A and 340-698 of R15B were cloned into pMAL-c5x; made in house; host or cells: E. coli BL21-Gold (DE3) pLysS. The settings on record: R15 3 μM, compound 100 μM, trypsin 5 nM, 5 min, 22°C. As to the method:
as §2

For series [8], the system named is HeLa cells. Put plainly: Assessment of translation rates (35S-methionine), HeLa cells. The series is classed as cell-based, human. The settings on record: 10 μM; for Label (%), newly synthesized proteins (35S-methionine): HeLa, 0 h = 100. The method, then: HeLa or MEF cells (90,000 cells/mL) were plated in 12-well plates (1 mL/well). The following day cells were treated as indicated; the medium was removed, fresh medium containing compound added and incubated at 37°C for the times indicated. The time course was performed in reverse order to facilitate labeling all samples at the same time. After the treatment the cells were labeled with 100 μCi/mL ^35S-methionine (Hartmann Analytic) for 10 min at 37°C (300 μL fresh medium containing 3 μL ^35S-methionine was added to each well). Note that cells were not starved in methionine-free media before labeling with ^35S-methionine for monitoring protein synthesis. The labeled cells were then washed twice with ice-cold PBS and lysed in 120 μL Laemmli Buffer. Lysates were transferred to 1.5 mL eppendorf tubes, boiled at 95°C for 5 min, sonicated and resolved on Bolt SDS-PAGE 4%–12% Bis-Tris gels (ThermoFisher Scientific). Gels were then stained with InstantBlue (Expedeon) and after the gels had been imaged they were transferred to a 20% ethanol, 7% acetic acid, 4% glycerol solution for 10 min. This was to prevent the gels from cracking while drying. The gels were transferred to filter paper and dried using a gel dryer. The gels were then exposed to a Storage Phosphor Screen (GE Healthcare) and analyzed by phosphorimaging using a Typhoon Imager Scanner (GE Healthcare).

The test system of series [9] is eIF2α phosphorylation (HeLa cells). Put plainly: Protein analyses on immunoblots, HeLa cells. The series is classed as cell-based, human. As to conditions: unstressed, 10 μM, 0-10 h. As to the method:
HeLa or MEF cells (90,000 cells/mL) were plated in 12-well plates (1 mL/well). The following day cells were treated as indicated; the medium was removed, fresh medium containing compound added and incubated at 37°C for the times indicated. The time course was performed in reverse order to facilitate collecting all samples at the same time. At the end of treatment cells were washed two times with ice-cold PBS and lysed in 150 μL Laemmli Buffer. Lysates were transferred to 1.5 mL eppendorf tubes, boiled at 95°C for 5 min, sonicated and resolved on Bolt SDS-PAGE 4%–12% Bis-Tris gels (ThermoFisher Scientific). Proteins were transferred to the nitrocellulose membrane using the iBlot 2 system (ThermoFisher Scientific). Membrane was blocked in 5% skimmed milk for 30 min and then probed with primary antibodies followed by incubation with the appropriate horseradish peroxidase-conjugated secondary antibodies (Promega). Proteins were visualized using ECL Prime (GE Healthcare) and imaged in the Chemi-Smart 5000 (Vilber-Lourmat, France) or ChemiDoc Touch (BioRad). Bands were quantified using ImageJ (NIH, USA). The following primary antibodies were used: e-IF2α-P (ThermoFisher Scientific (#44-728G), 1:1,000), e-IF2α (Abcam (#ab5369), 1:1,000), tubulin (Sigma-Aldrich (#T5168), 1:4,000), BiP (BD Biosciences PharMingen (#610978), 1:1,000), ATF4 (Santa Cruz Biotechnology (#sc-200), 1:500), Ppp1r15a (Proteintech (#10449-1-AP), 1:1,000), Ppp1r15b (Proteintech (#14634-1-AP), 1:1,000) and CHOP (ABR Affinity BioReagents (#MA1-250), 1:1,000).

The target in series [10] is T2, PP1c. Nature of the series: PP1c catalytic activity assay (DiFMUP, EnzChek). The settings on record: his-PP1c 30 nM.
Description: Residual activity of PP1c was measured using the EnzChek Phosphatase Assay Kit (ThermoFisher Scientific) according to the supplier’s instructions, with minor modifications.

Several values for one entry are separate records, joined by “and”; a condition that tells them apart may be missing. Identical values can stand only once. Peptide text beside a SMILES is read from it. * marks the point of attachment. Cbz = O=C(OCc1ccccc1)*

T2 sequence (P36873 1-322): as the sequence (P36873 1-322 partner) above
Sequence of R15A (O75807 325-636, stated change not applied): as the sequence (O75807 325-636, stated change not applied) above

Take `Cc1cc2c(C(N)=O)cccc2n1-c1nc2c(c(NCc3ccccc3)n1)COCC2` [CB-5083]: the “Effect of co-treatment on the Raphin1-induced decrease in R15B” value in [1] is “essentially abrogated”.
`C[C@@H]1C[C@@H]([C@H](O)CC2CC(=O)NC(=O)C2)C(=O)[C@@H](C)C1` [cycloheximide, Cycloheximide]: in [2], the “Liver steatosis (Oil Red O)” value is given as “caused liver steatosis”.
`N=C(N)N/N=C/c1ncccc1Cl` [compound C3]: in [3], the “Binding to PP1c alone (in words)” value was “no detectable binding”. In addition, in series [4], the “Binding to R15A-PP1c (in words)” value is reported as “no detectable binding”. The “Binding to R15B-PP1c (in words)” value in series [5] was “no detectable binding”.
Regarding `N=C(N)N/N=C/c1c(Cl)cccc1Cl` [GBZ, Guanabenz], the “Protease sensitivity of R15B (limited proteolysis, conformational change)” value in series [6] is recorded as “neither GBZ nor Sephin1 affected”. Also, the “Binding to PP1c alone (in words)” value in series [3] is on record as “did not measurably bind”. In addition, in series [4], the “Binding to R15A-PP1c (in words)” value is “strongly bound”. In addition, in series [4] (holophosphatase reconstituted on SA chip, 20°C, mean ± SD, read-out: KD, steady-state affinity for R15A-PP1c), the Kd is 122 nM and < 10000 nM. The “Protease sensitivity of R15A (limited proteolysis, conformational change)” value in series [7] is “increased resistance to limited-proteolysis”. In addition, in [8] (HeLa cells, unstressed), the “Protein synthesis (in words)” value is given as “no measurable effects”. Also, the “Label (%), newly synthesized proteins (35S-methionine)” value in series [8] (1 h) came out at 94%; in series [8] (2 h), 92%; in [8] (5 h), 103%; in series [8] (7.5 h), 96%; in [8] (10 h), 97%. Also, the eIF2α phosphorylation entry in series [9] was “no measurable effects”. Further, the “Binding to R15B-PP1c (in words)” value in series [5] is recorded as “did not bind or only weakly bound”. In [10], the “Inhibition of PP1c (dephosphorylation of difluoro-4-methylumbelliferyl phosphate)” value was “did not inhibit”.
With `COC[C@@H]([C@H](O)[C@H](O)C(=O)NCC[C@H](C)c1nc(/C=C/C[C@@H]2O[C@]3(C[C@@H](O)[C@@H]2C)O[C@H]([C@H](C[C@H](O)[C@H](C)[C@H](O)[C@H](C)/C=C(C)/C(C)=C/C=C/C(C)=C\C#N)OC)[C@H](OP(=O)(O)O)C3(C)C)co1)N(C)C` [Calyculin A], the “Inhibition of PP1c (dephosphorylation of difluoro-4-methylumbelliferyl phosphate)” value in series [10] is given as “inhibited”.
In the case of `Cc1cc(OCc2nnc(SC3CCCC3)n2-c2cccnc2)ccc1-c1ccc(S(C)(=O)=O)cc1` [NSM-873], the “Effect of co-treatment on the Raphin1-induced decrease in R15B” value in series [1] was “essentially abrogated”.
Regarding `CC(C)C[C@@H](C=O)NC(=O)[C@H](CC(C)C)NC(=O)[C@H](CC(C)C)NC(=O)OCc1ccccc1` [MG-132] (Cbz-Leu-Leu-Leu-aldehyde), the “Effect of co-treatment on the Raphin1-induced decrease in R15B” value in series [1] is “prevented”.
